Laboratory results from patent EP4813463A2, “TYK2 INHIBITORS AND COMPOSITIONS AND METHODS THEREOF” (Lynk Pharmaceuticals Co. Ltd., priority 2023, dated 2024).
Read-outs that look alike come from different tables or passages of the source.

What was measured:
TYK2-JH2 domain = biological target: T1, TYK2-JH2 domain (Homo sapiens, UniProt P29597); test: Binding activity test for JH2 domain of TYK2 (Tb-antibody/tracer FRET); conditions: for IC50: JH2 domain enzyme, 60 min at 25°C, then 4°C overnight, read-out: TYK2 JH2 Binding IC50; for JAK1/TYK2 selectivity: ratio of JAK1 JH2 to TYK2 JH2 binding IC50
T1 construct: JAK1-JH2 domain or TYK2-JH2 domain enzyme in assay buffer
Method in brief: (§1)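 Competitive TR-FRET binding: compounds dispensed as an 11-point 3-fold dilution series, then Tb-labelled antibody and tracer added to the JH2 protein system. Incubated at 25°C, then overnight at 4°C; FRET signal read on Envision and IC50 (nM) derived.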

JAK1-JH2 domain = biological target: T2, JAK1-JH2 domain (Homo sapiens, UniProt P23458); test: Binding activity test for JH2 domain of JAK1 (Tb-antibody/tracer FRET); conditions: JH2 domain enzyme; 60 min at 25°C, then 4°C overnight; read-out: JAK1 JH2 Binding IC50
T2 construct: JAK1-JH2 domain or TYK2-JH2 domain enzyme in assay buffer
Method in brief: as §1

[1] = test system: Ba/F3-FL-TYK2-P760L cells; test: Anti-proliferative assay in engineered Ba/F3 cells (Cell-Titer Glo, 72 h); assay type: cell-based; conditions: 72 h compound treatment, concentration that causes 50% growth inhibition, read-out: Baf3-FL-T2P760L
Method in brief: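 Ba/F3 cells carrying Tel-dimerization/JAK kinase fusion, IL-3-independent, in RPMI-1640 + 10% FBS; 9-point 3-fold dilutions from 20 µM (0.1% DMSO) added after 24 h, 72 h at 37 °C. Viability by Cell-Titer Glo ATP luminescence; % inhibition versus DMSO cells, blank-corrected, giving IC50.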

[2] = Microsomal metabolic stability assay; assay type: in vitro ADME; conditions: human, liver microsomes, pH 7.4, 0.5 mg/mL microsomal protein, 1 µM test article, 2 mM NADPH; for microsomal CLint at 1 µM: read-out: Human LM Clint; for half-life at 1 µM: read-out: Human LM T1/2
Description: Microsomes were pre-incubated with test compound or control compounds for 5 min at 37°C in 100 mM potassium phosphate buffer, pH 7.4, 1.0 mM EDTA. The reaction was initiated by addition of 15 µL of the NADPH regenerating system to 30 µL of each incubation mixture per time point. The final incubation condition was composed of 0.5 mg/mL microsomal protein, 1 µM test article/positive control, 2 mM NADPH. The 0-minute samples were prepared by addition of a 30 µL aliquot of each incubation mixture to 135 µL quench reagent to precipitate proteins. And then a 15 µL aliquot of the NADPH regenerating system was added. At 5, 15, 30 and 45 minutes, the reaction will be stopped by the addition of cold acetonitrile solution containing internal standard. The samples taken at all time points were centrifuged at 5000×g for 15 minutes. 50 µL of supernatant are taken into 96-well assay plates pre-added with 50 µL ultrapure water, and then analyzed by LC/MS/MS.
Concentrations of test articles, control compounds in the samples were determined by using LC/MS/MS method. Plotting of the chromatograms and peak area integrations are carried out by Analyst (AB Sciex).
In the determination of the in vitro elimination constant (ke) of the control compounds, the analyte/internal standard peak area ratios will be converted to percentage remaining (%Remaining) with the following equation: %Remaining = (Peak area ratio of analyte to IS at each time point)/(Peak area ratio of analyte to IS at t = 0) × 100% [formula]
The CLint of microsomes was calculated using the formula: CLint (mic)=0.693/T1/2 /mg microsome protein per mL. The slope was measured by the natural logarithm of the percentage of the residual compound and time, T1/2 was calculated according to the following formula. T = (0.693)/(−slope) [formula]

pSTAT1 = test: Phosphorylation inhibition of STAT in human whole blood (IFN-alpha stimulated, flow cytometry); assay type: cell-based; conditions: T-cell, 20 min, IFN-alpha stimulation 20 mins, CD3 T cells, read-out: pSTAT1 inhibition in hWB (IC50)
Description: The inhibitory potential of test articles in human whole blood assay was evaluated by the method of flow cytometry.
IFN-alpha will activate JAK1 and TYK2 kinase in T cells by binding to IFN receptors, and then lead to phosphorylation of STAT1 and STAT2. The phosphorylated STAT1 enter nuclear and promote transcription and expression of IFN-gamma. To evaluate the efficacy of TYK2i in T cells, freshly collected human whole blood will be stimulated with certain unit of human IFN-alpha (Universal Type I IFN(1MU), R&D, 11200-2) for 20 mins in incubator. After stimulation, fix cells with Phosflow™ Fix Buffer I (BD, 557870), and then collect fixed cells by centrifugation (500 g, 8min). Wash cells once with pre-cooled PBS, and then permeabilize cells with cold Perm Buffer III buffer (BD, 558050) for 45 mins on ice. Collect cells by centrifugation (600 g, 8min) and washed twice with cold PBS. Stain cells with anti-human CD3(FITC Mouse Anti-Human CD3, BD, 555332) and anti-pSTAT1_Y701(Alexa Fluor 647 Mouse Anti-Stat1 (pY701), BD, 612597) antibodies. Detect pSTAT1 by flow cytometry (CytoFlex S) and analyze data with FlowJo and GraphPad Prism 8 software. IC50 values of test articles were determined using 4- parameter logistic equation.

T2 sequence (P23458 583-855 limits assumed): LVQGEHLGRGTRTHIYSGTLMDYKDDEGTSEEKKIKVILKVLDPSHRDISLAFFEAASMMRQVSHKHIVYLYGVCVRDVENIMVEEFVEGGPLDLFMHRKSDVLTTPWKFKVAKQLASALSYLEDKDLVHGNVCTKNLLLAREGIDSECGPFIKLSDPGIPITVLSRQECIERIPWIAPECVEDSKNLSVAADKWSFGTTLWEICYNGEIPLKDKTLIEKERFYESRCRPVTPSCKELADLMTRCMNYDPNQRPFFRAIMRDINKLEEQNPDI
T1 sequence (P29597 589-875 limits assumed): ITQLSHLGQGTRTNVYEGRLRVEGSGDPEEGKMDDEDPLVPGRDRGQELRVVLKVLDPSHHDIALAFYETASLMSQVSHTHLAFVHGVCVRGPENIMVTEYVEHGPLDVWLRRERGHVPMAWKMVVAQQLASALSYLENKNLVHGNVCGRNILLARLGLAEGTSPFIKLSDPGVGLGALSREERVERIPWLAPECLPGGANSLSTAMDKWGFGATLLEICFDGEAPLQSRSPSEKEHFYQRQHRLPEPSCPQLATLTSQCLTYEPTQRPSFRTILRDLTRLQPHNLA

Compound	IC50 (TYK2-JH2 domain)	JAK1/TYK2 selectivity (TYK2-JH2 domain)	IC50 (JAK1-JH2 domain)	IC50 ([1]; Mus musculus, BaF3, 72 h)	microsomal CLint at 1 µM [2]	half-life at 1 µM [2]	IC50 [1]	IC50 (pSTAT1)
CCn1nc(Nc2cc(NC(=O)C3CC3)ncc2C(=O)OC)c2c(OC)c(C(OC)C(F)(F)F)ccc21 (single isomer, unassigned) [Example 66B, Methyl (S*)-6-(cyclopropanecarboxamido)-4-((1-ethyl-4-methoxy-5-(2,2,2-trifluoro-1-methoxyethyl)-1H-indazol-3-yl)amino)nicotinate]	0.13 nM	719.87	90.7 nM	12.5 nM	14.2 µL/min/mg	1.62 h		
[2H]C([2H])([2H])NC(=O)c1cnc(NC(=O)C2CC2)cc1Nc1nn(CC)c2ccc(C(O)C(F)(F)F)c(OC)c12 (single isomer, unassigned) [Example 71A, (S*)-6-(cyclopropanecarboxamido)-4-((1-ethyl-4-methoxy-5-(2,2,2-trifluoro-1-hydroxyethyl)-1H-indazol-3-yl)amino)-N-(methyl-d3)nicotinamide]	0.14 nM	51.84	7.26 nM				0.412 nM	54.9 nM
[2H]C([2H])([2H])NC(=O)c1cnc(NC(=O)C2CC2)nc1Nc1cnn2ccc(Cl)c(OC)c12 [Example 4, 4-((5-Chloro-4-methoxypyrazolo[1,5-a]pyridin-3-yl)amino)-2-(cyclopropanecarboxamido)-N-(methyl-d3)pyrimidine-5-carboxamide]	0.164 nM	93.5	15.3 nM	38.9 nM				312 nM
[2H]C([2H])([2H])NC(=O)c1cnc(NC(=O)[C@@H]2C[C@@H]2F)cc1Nc1cnn2ccc(COC)c(OC)c12 [Example 17, 6-((1S,2S)-2-fluorocyclopropane-1-carboxamido)-4-((4-methoxy-5-(methoxymethyl)pyrazolo[1,5-a]pyridin-3-yl)amino)-N-(methyl-d3)nicotinamide]	0.102 nM	125.0	12.7 nM	84.3 nM	12.3 µL/min/mg	1.87 h		
[2H]C([2H])([2H])NC(=O)c1cnc(NC(=O)C2CC2)cc1Nc1cnn2cnc(OC)c(OC)c12 [Example 35, 6-(Cyclopropanecarboxamido)-4-((4,5-dimethoxypyrazolo[1,5-c]pyrimidin-3-yl)amino)-N-(methyl-d3)nicotinamide]	8.27 nM	11.2	92.3 nM	2340 nM	5.72 µL/min/mg	4.04 h		
[2H]C([2H])([2H])NC(=O)c1cnc(NC(=O)C2CC2)cc1Nc1cnn2cnc(C(C)C(F)(F)F)c(OC)c12 (stereo not shown) [Example 37, 6-(Cyclopropanecarboxamido)-4-((4-methoxy-5-(1,1,1-trifluoropropan-2-yl)pyrazolo[1,5-c]pyrimidin-3-yl)amino)-N-(methyl-d3)nicotinamide]	1.65 nM	67.1	111 nM	768 nM	12.3 µL/min/mg	1.88 h		
COC(=O)c1cnc(NC(=O)C2CC2)cc1Nc1nn(C)c2ccc(C(O)C(F)(F)F)c(OC)c12 (stereo not shown) [Example 48, Methyl 6-(cyclopropanecarboxamido)-4-((4-methoxy-1-methyl-5-(2,2,2-trifluoro-1-hydroxyethyl)-1H-indazol-3-yl)amino)nicotinate]	0.166 nM	202.69	33.6 nM	2.19 nM	19.3 µL/min/mg	1.2 h		
[2H]C([2H])([2H])O[C@@H](c1ccc2c(c(Nc3cc(NC(=O)C4CC4)ncc3C(=O)OC)nn2C([2H])([2H])[2H])c1OC)C(F)(F)F [Example 53B, Methyl (S)-6-(cyclopropanecarboxamido)-4-((4-methoxy-1-(methyl-d3)-5-(2,2,2-trifluoro-1-(methoxy-d3)ethyl)-1H-indazol-3-yl)amino)nicotinate]	0.15 nM			2.84 nM	13.2 µL/min/mg	1.75 h		
COC(=O)c1cnc(NC(=O)C2CC2)cc1Nc1nsc2ccc(C(OC)C(F)(F)F)c(OC)c12 (stereo not shown) [Example 67, Methyl 6-(cyclopropanecarboxamido)-4-((4-methoxy-5-(2,2,2-trifluoro-1-methoxyethyl)benzo[d]isothiazol-3-yl)amino)nicotinate]	0.15 nM			2.5 nM	18.3 µL/min/mg	1.26 h		
[2H]C([2H])([2H])OC(c1ccc2c(c(Nc3cc(NC(=O)C4CC4)ncc3C(=O)OC)nn2C([2H])([2H])[2H])c1OC)C(F)F (stereo not shown) [Example 102, Methyl 6-(cyclopropanecarboxamido)-4-((5-(2,2-difluoro-1-(methoxy-d3)ethyl)-4-methoxy-1-(methyl-d3)-1H-indazol-3-yl)amino)nicotinate]	0.19 nM	99.81	18.5 nM	3.9 nM	29.8 µL/min/mg	0.776 h		
COC(=O)c1cnc(NC(=O)C2CC2)cc1Nc1nc2ccc(N3CC(OC)C3)cn2n1 [Example 107, Methyl 6-(cyclopropanecarbonylamino)-4-[[6-(3-methoxyazetidin-1-yl)-[1,2,4]triazolo[1,5-a]pyridin-2-yl]amino]pyridine-3-carboxylate]	0.25 nM			27.8 nM				401 nM
[2H]C([2H])([2H])CC(=O)c1cnc(NC(=O)C2CC2)cc1Nc1cnn2ccc([C@H](O)C(F)(F)F)c(OC)c12 [Example 141, (S)-N-(4-((4-methoxy-5-(2,2,2-trifluoro-1-hydroxyethyl)pyrazolo[1,5-a]pyridin-3-yl)amino)-5-(propanoyl-3,3,3-d3)pyridin-2-yl)cyclopropanecarboxamide]	0.075 nM			11.3 nM				177 nM
[2H]C([2H])(C)C(=O)c1cnc(NC(=O)C2CC2)cc1Nc1nn(C)c2ccc(C(O)C(F)(F)F)c(OC)c12 (stereo not shown) [Example 156, N-(4-((4-methoxy-1-methyl-5-(2,2,2-trifluoro-1-hydroxyethyl)-1H-indazol-3-yl)amino)-5-(propanoyl-2,2-d2)pyridin-2-yl)cyclopropanecarboxamide]	0.163 nM	86.87	14.2 nM	1.76 nM	26.2 µL/min/mg	0.881 h		
[2H]C([2H])([2H])OC(c1ccc2c(c(Nc3cc(NC(=O)C4CC4)ncc3C(=O)OC)nn2CCOC)c1OC)C(F)(F)F (stereo not shown) [Example 157, Methyl 6-(cyclopropanecarboxamido)-4-((4-methoxy-1-(2-methoxyethyl)-5-(2,2,2-trifluoro-1-(methoxy-d3)ethyl)-1H-indazol-3-yl)amino)nicotinate]	0.15 nM				25.8 µL/min/mg	0.897 h	9.21 nM	
